Data from PMC6321233, “Cysteines and Disulfide-Bridged Macrocyclic Mimics of Teixobactin Analogues and Their Antibacterial Activity Evaluation against Methicillin-Resistant Staphylococcus Aureus (MRSA)” (Pharmaceutics, 2018).
Converted amounts (≈) assume the structure as drawn. Read-outs that look alike come from different tables or passages of the source.

How the values were obtained:
MRSA ATCC 33591 = conditions: reference peptides marked with superscript 12 in Table 1; cited from earlier work
Excerpt: MIC: Minimum Inhibitory Concentration in µg/mL; all the MIC runs in triplicate. (-) = Not evaluated. | column: MRSA ATCC 33591

MRSA ATCC 700699 [1] = conditions: reference peptide marked with superscript 12 in Table 1; cited from earlier work
Excerpt: MIC: Minimum Inhibitory Concentration in µg/mL; all the MIC runs in triplicate. (-) = Not evaluated. | column: MRSA ATCC 700699

S. aureus ATCC 29213 [2] = conditions: reference peptide marked with superscript 12 in Table 1; cited from earlier work
Excerpt: MIC: Minimum Inhibitory Concentration in µg/mL; all the MIC runs in triplicate. (-) = Not evaluated. | column: S. aureus ATCC 29213

MRSA = conditions: introduction, strain not named; cited from earlier work
Excerpt: Brimble et al. have also reported on the synthesis and antibacterial activity of teixobactin analogues by replacing L-allo-enduracididine with isosteres. Furthermore, teixobactin analogues with lipid tails were reported by Jamieson et al ...

S. aureus ATCC 29213 [3] = assay: MIC, broth microdilution, Methicillin-sensitive S. aureus ATCC 29213; assay type: cell-based, Staphylococcus aureus; conditions: Mueller Hinton broth, 37 °C, 24 h, peptides in DMSO with 0.002% polysorbate 80, 128-0.25 µg/mL two-fold dilutions, no visible growth, runs in triplicate
Method: (§1) For minimum inhibitory concentration (MIC) assays, all peptides were dissolved in DMSO containing 0.002% polysorbate 80. Bacteria was grown in Mueller Hinton broth (Oxoid) in triplicate. All incubations were at 37 °C. Dilutions were carried out in triplicate, and 100 µL of autoclaved Mueller Hinton broth was added to wells 2–11 in a 96-well plate. 200 µL of the peptide was added to well one at a concentration of 128 µg/mL. 100 µL of peptide in well one was taken up and pipetted into well two. The mixture was then mixed via pipetting before 100 µL was taken up and pipetted into well three. This process was repeated up to well 10. Once the peptide was added to well 10, 100 µL was taken up and then discarded, ensuring that well 11 had no peptide present. Thus, the concentrations (in µg/mL) were: 128, 64, 32, 16, 8, 4, 2, 1, 0.5, 0.25, and 0 (no peptide present). Each well was then inoculated with 100 µL of bacteria that had been diluted to an OD 600 nm of 0.1. This was repeated three times. The 96-well plates were then incubated at 37 °C for 24 h. […]
(§2) Antibacterial activity of the teixobactin analogues was assessed against Methicillin-resistant Staphylococcus aureus (MRSA ATCC 33591, MRSA ATCC […]) and Methicillin-sensitive Staphylococcus aureus. The minimum inhibitory concentration was measured using the broth microdiluation method (see Experimental Section 2.4). […]

MRSA ATCC 700699 [4] = assay: MIC, broth microdilution, MRSA ATCC 700699; assay type: cell-based, Staphylococcus aureus; conditions: Mueller Hinton broth, 37 °C, 24 h, peptides in DMSO with 0.002% polysorbate 80, 128-0.25 µg/mL two-fold dilutions, lowest concentration with no visible growth, runs in triplicate
Method: as §1, §2

Compound | MIC: Minimum Inhibitory Concentration, MRSA ATCC 33591 (MRSA ATCC 33591) [µg/mL] | activity against MRSA compared with teixobactin (in words) (MRSA) | also measured
Teixobactin | 0.25 | – | –
Leu10-teixobactin | 0.25 | to the same extent as teixobactin | MIC: Minimum Inhibitory Concentration, MRSA ATCC 700699 (MRSA ATCC 700699 [1]): 0.25 µg/mL; MIC: Minimum Inhibitory Concentration, S. aureus ATCC 29213 (S. aureus ATCC 29213 [2]): 0.062 µg/mL
Ile10-teixobactin | – | to the same extent as teixobactin | –
CN[C@H](CC(C)C)C(=O)N[C@H]1C(=O)N[C@@H](CC(N)=O)C(=O)N[C@H]2C(=O)N[C@H]3C(=O)N[C@H](C(=O)N[C@H](C(=O)O)c4cc(O)cc(O)c4-c4cc3ccc4O)[C@H](O)c3ccc(c(Cl)c3)Oc3cc2cc(c3O[C@@H]2O[C@H](CO)[C@@H](O)[C@H](O)[C@H]2O[C@H]2C[C@](C)(N)[C@H](O)[C@H](C)O2)Oc2ccc(cc2Cl)[C@H]1O [Vancomycin] | – | – | MIC: Minimum Inhibitory Concentration, S. aureus ATCC 29213 (S. aureus ATCC 29213 [3]): 4 µg/mL (≈ 2.76 µM); MIC: Minimum Inhibitory Concentration, MRSA ATCC 700699 (MRSA ATCC 700699 [4]): 2 µg/mL (≈ 1.38 µM)
